From publication PMC4537050, “A long pentraxin-3-derived pentapeptide for the therapy of FGF8b-driven steroid hormone-regulated cancers” (Oncotarget, 2015)

Experiments:
FGF8b = biological target: T1, FGF8b (Homo sapiens, UniProt P55075); experiment: SPR analysis of peptide binding to immobilized FGF8b; design: purchased PeproTech; conditions: for Kd / FGF8b binding (Kd): SPR, immobilized FGF8b, mean ± SEM; for FGF8b binding activity (in words): SPR on the FGF8b-coated sensor chip
T1 sequence (P55075 23-215 isoform P55075-3 limits assumed): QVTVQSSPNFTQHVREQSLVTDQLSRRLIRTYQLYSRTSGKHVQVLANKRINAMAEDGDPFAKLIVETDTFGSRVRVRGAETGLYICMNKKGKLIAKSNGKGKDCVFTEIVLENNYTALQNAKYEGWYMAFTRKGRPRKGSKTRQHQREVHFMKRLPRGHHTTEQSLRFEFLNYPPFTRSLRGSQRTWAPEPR
Description: A BIAcore X-100 apparatus (BIAcore Inc., Piscataway, NJ, USA) was used to set up the following experimental models. ARPCA and all the peptides mentioned in the present work were analyzed for their capacity to directly bind to immobilized FGF8b. To this purpose, FGF8b (20 μg/ml in 10 mM sodium acetate, pH 6.0) was allowed to react with a flow cell of a CM5 sensor chip that was previously activated with a mixture of 0.2 M N-ethyl-N′-(3-dimethylaminopropyl)-carbodiimide hydrochloride and 0.05 M N-hydroxysuccinimide (35 μl, flow rate 10 μl/min). After ligand immobilization, matrix neutralization was performed with 1.0 M ethanolamine (pH 8.5) (35 μl, flow rate 10 μl/min) and the activated/deactivated dextran was used as reference (control) system. Increasing concentrations of ARPCA (ranging between 8 μM and 2000 μM) were injected over the FGF8b-coated sensor chip and the response was recorded as a function of time tracking the SPR intensity change upon binding progression. Injection lasted for 4 min (flow rate 30 μl/min) to allow peptide association to immobilized FGF8b and was followed by 10 min of dissociation; each run was performed in HBS and the sensor chip was regenerated with 10 mM NaOH. […] Binding isotherm points were fitted with the Langmuir equation for monovalent binding. This allowed to evaluate the mass surface dissociation constant, Kd, and the scaling parameter that relates the SPR signal with the extent of binding, as the free parameters of the fitting. The errors on these parameters were assigned as a result of the fitting algorithm (95% confidence bounds). The best-fitting procedure was performed with the SigmaPlot 11.0 software package (Systat Software Inc.). Others FGFs were dissolved in 10mM sodium acetate at optimal pH, immobilized on CM5 sensorchips and tested for their capacity to bind ARPCA as described above.

HUVECs = experiment: HUVEC proliferation in response to FGF8b; format: cell-based, human; conditions: 30 ng/ml FGF8b, 48 h, concentrations as high as 300 μM
Description: (§1) HUVECs were seeded at 18000 cells/cm^2 in medium containing 2.5% FBS and stimulated with 30 ng/ml FGF8b in the absence or presence of increasing concentrations of ARPCA or ARPVA. S115 cells were seeded at 15000 cells/cm^2 in medium containing 4% hormone-deprived dextran-coated charcoal-stripped heat inactivated FBS, followed by 24 h serum starvation in 1:1 mixture of serum-free Ham's F12 and DMEM. Cells were stimulated for 48 h with 30 ng/ml FGF8b or 10 nM DHT in the presence or absence of different concentrations of ARPCA or ARPVA (as specified in the corresponding figures). Viable cell counts were obtained by the counting function of the MACSQuant® Analyzer (Miltenyi Biotec, Bergisch-Gladbach, Germany, EU).

S115 cells = experiment: S115 cell proliferation assay; format: cell-based, mouse; conditions: 30 ng/ml FGF8b or 10 nM DHT, 48 h, viable cell counting
Description: as §1

[1] = tested on: chick embryo chorioallantoic membrane (CAM); experiment: Chick embryo CAM assay with growth factor alginate implants; format: in vivo; conditions: 4.5 pmoles FGF8b/plug; ARPCA 80 or 140 pmoles, ARPVA 140 pmoles; vessels counted at day 14
Description: (§2) Alginate plugs containing vehicle, FGF8b (4.5 pmoles/embryo), VEGF-A (4.5 pmoles/embryo) or S115 cells (2.5×10^4/embryo) in the absence or presence of ARPCA (80 or 140 pmoles/embryo) or ARPVA (140 pmoles/embryo) were placed on the CAM of fertilized white leghorn chicken eggs at day 11 of incubation. At day 14, newly formed blood microvessels converging toward the implant were counted by two observers in a double-blind fashion at 5x magnification under a stereomicroscope (STEMI-SR, x2/0.12; Zeiss) as described.

[2] = tested on: S115 cells grafted onto the chick embryo CAM; experiment: CAM assay with DHT-treated S115 cell grafts; format: in vivo; conditions: 2.5 × 10^4 cells/embryo; ARPCA 80 or 140 pmoles/embryo, ARPVA 140 pmoles/embryo; day 14
Description: as §2

Ac-APCRA-NH2 [Ac-APCRA-NH2]
Kd (FGF8b): > 3 mM

Ac-ARACA-NH2 [Ac-ARACA-NH2]
FGF8b binding activity (in words) (FGF8b): activity was lost
Kd (FGF8b): > 3 mM

Ac-ARGCA-NH2 [Ac-ARGCA-NH2]
FGF8b binding activity (in words) (FGF8b): activity was lost
Kd (FGF8b): > 3 mM

Ac-ARPCG-NH2 [Ac-ARPCG-NH2]
FGF8b binding activity (in words) (FGF8b): dramatically reduced
Kd (FGF8b): 1.9 ± 0.2 mM

Ac-ARPMA-NH2 [Ac-ARPMA-NH2]
FGF8b binding activity (in words) (FGF8b): activity was lost
Kd (FGF8b): > 3 mM

Ac-ARPSA-NH2 [Ac-ARPSA-NH2]
FGF8b binding activity (in words) (FGF8b): activity was lost
FGF8b binding (Kd) (FGF8b): nb

Ac-ARPVA-NH2 [Cys4-replaced ARPCA pentapeptide mutant used as a negative control, reference compound]
effect on HUVEC proliferation in response to FGF8b (in words) (HUVECs): no significant effect
mitogenic response of S115 cells to FGF8b or DHT (S115 cells): ineffective
angiogenic response elicited by FGF8b in the CAM [1]: No inhibitory effect
neovascular response elicited by DHT-pretreated S115 cells on the CAM [2]: no effect
FGF8b binding activity (in words) (FGF8b): activity was lost
FGF8b binding (Kd) (FGF8b): nb

Ac-GRPCG-NH2 [Ac-GRPCG-NH2]
FGF8b binding activity (in words) (FGF8b): dramatically reduced
Kd (FGF8b): > 3 mM

H-ARPCA-NH2 [H-ARPCA-NH2]
FGF8b binding activity (in words) (FGF8b): dramatically reduced
Kd (FGF8b): 2.9 ± 0.55 mM
